Measurements taken from paper PMC7093416, “Selective USP7 inhibition elicits cancer cell killing through a p53-dependent mechanism” (Scientific Reports, 2020).

System: panel of 484 cancer cell lines
Experiment: PRISM cancer cell line profiling, 5 days
Assay type: cell-based
Set-up: AUC: unit not given beside the values
Protocol: Cancer cell line profiling was performed using the Broad’s PRISM platform. Cell treatment and data analysis were performed as described in Yu et al[42]. Raw Luminex signal was converted to AUC values for each cell line as described. The resulting AUC profile for each compound was modeled against DepMap using the limma package in R[71]. Because hotspot mutation analysis was performed against DepMap, TP53 annotations in Fig. 6c,d are directly from DepMap.

Compound: CN1CCN(CCC(=O)Nc2ccc3c(=O)n(CC4(O)CCN(C(=O)[C@H](CCCNC(=O)c5ccc6c(Cl)c7c(nc6c5)CCCC7)Cc5ccccc5)CC4)cnc3c2)CC1 [XL177B]
- AUC (HCC1438_LUNG): 0.9398
- AUC (HCC1588_LUNG): 1.124
- AUC (HCC1806_BREAST): 1.262
- AUC (HCC1937_BREAST): 0.9651
- AUC (HCC4006_LUNG): 1.102
- AUC (HCT15_LARGE_INTESTINE): 1.193
- AUC (HCT116_LARGE_INTESTINE): 1.02
- AUC (HDQP1_BREAST): 0.9999
- AUC (HEC1A_ENDOMETRIUM): 1.104
- AUC (HEC1B_ENDOMETRIUM): 1.096
- AUC (HEC6_ENDOMETRIUM): 1.02
- AUC (HEC59_ENDOMETRIUM): 1.13
- AUC (HEC108_ENDOMETRIUM): 0.935
- AUC (HEC151_ENDOMETRIUM): 0.9419
- AUC (HEC251_ENDOMETRIUM): 0.8279
- AUC (HEC265_ENDOMETRIUM): 0.8825
- AUC (HEP3B217_LIVER): 1.23
- AUC (HEYA8_OVARY): 1.2
- AUC (HGC27_STOMACH): 1.226
- AUC (HLF_LIVER): 0.794
- AUC (HMC18_BREAST): 1.228
- AUC (HOS_BONE): 1.145
- AUC (HPAC_PANCREAS): 1.288
- AUC (HS294T_SKIN): 1.038
- AUC (HS618T_LUNG): 1.097
- AUC (HS729_SOFT_TISSUE): 1.1211
- AUC (HS766T_PANCREAS): 1.2108
- AUC (HS852T_SKIN): 1.089
- AUC (HS939T_SKIN): 1.116
- AUC (HS944T_SKIN): 1.026
- AUC (HSC2_UPPER_AERODIGESTIVE_TRACT): 1.102
- AUC (HSC3_UPPER_AERODIGESTIVE_TRACT): 1.094
- AUC (HT29_LARGE_INTESTINE): 1.23
- AUC (HT55_LARGE_INTESTINE): 1.212
- AUC (HT144_SKIN): 1.106
- AUC (HT1080_SOFT_TISSUE): 0.9733
- AUC (HT1376_URINARY_TRACT): 0.9173
- AUC (HUCCT1_BILIARY_TRACT): 1.078
- AUC (HUH6_LIVER): 0.9719
- AUC (HUH7_LIVER): 1.132
- AUC (HUH28_BILIARY_TRACT): 1.093
- AUC (HUPT3_PANCREAS): 1.102
- AUC (IALM_LUNG): 1.165
- AUC (IGR1_SKIN): 1.13
- AUC (IGR37_SKIN): 1.06
- AUC (IGROV1_OVARY): 0.9036
- AUC (IM95_STOMACH): 0.9524
- AUC (IPC298_SKIN): 1.071
- AUC (ISHIKAWAHERAKLIO02ER_ENDOMETRIUM): 1.087
- AUC (ISTMES1_PLEURA): 0.902
- AUC (ISTMES2_PLEURA): 1.138
- AUC (J82_URINARY_TRACT): 1.062
- AUC (JHH1_LIVER): 0.9889
- AUC (JHH4_LIVER): 0.8541
- AUC (JHH5_LIVER): 1.201
- AUC (JHH6_LIVER): 1.182
- AUC (JHH7_LIVER): 1.125
- AUC (JHOC5_OVARY): 1.064
- AUC (JHOM1_OVARY): 1.08
- AUC (JHOS2_OVARY): 1.281
- AUC (JHUEM2_ENDOMETRIUM): 0.8483
- AUC (JIMT1_BREAST): 0.9922
- AUC (JMSU1_URINARY_TRACT): 1.004
- AUC (K029AX_SKIN): 1.1273
- AUC (KALS1_CENTRAL_NERVOUS_SYSTEM): 1.102
- AUC (KELLY_AUTONOMIC_GANGLIA): 1.134
- AUC (KMBC2_URINARY_TRACT): 0.9911
- AUC (KMRC1_KIDNEY): 1.146
- AUC (KMRC3_KIDNEY): 1.058
- AUC (KMRC20_KIDNEY): 1.146
- AUC (KNS42_CENTRAL_NERVOUS_SYSTEM): 1.1
- AUC (KNS60_CENTRAL_NERVOUS_SYSTEM): 1.09
- AUC (KNS62_LUNG): 1.118
- AUC (KNS81_CENTRAL_NERVOUS_SYSTEM): 1.075
- AUC (KP2_PANCREAS): 0.9926
- AUC (KP3_PANCREAS): 1.089
- AUC (KP4_PANCREAS): 0.9662
- AUC (KPL1_BREAST): 1.217
- AUC (KU1919_URINARY_TRACT): 0.9667
- AUC (KYSE30_OESOPHAGUS): 1.063
- AUC (KYSE70_OESOPHAGUS): 1.0546
- AUC (KYSE140_OESOPHAGUS): 1.1657
- AUC (KYSE150_OESOPHAGUS): 1.101
- AUC (KYSE180_OESOPHAGUS): 1.135
- AUC (KYSE270_OESOPHAGUS): 1.03
- AUC (KYSE410_OESOPHAGUS): 1.091
- AUC (KYSE510_OESOPHAGUS): 1.034
- AUC (KYSE520_OESOPHAGUS): 1.133
- AUC (L33_PANCREAS): 1.426
- AUC (LC1SQSF_LUNG): 1.115
- AUC (LCLC103H_LUNG): 1.231
- AUC (LI7_LIVER): 0.9601
- AUC (LK2_LUNG): 1.126
- AUC (LMSU_STOMACH): 1.053
- AUC (LN18_CENTRAL_NERVOUS_SYSTEM): 1.129
- AUC (LN229_CENTRAL_NERVOUS_SYSTEM): 1.034
- AUC (LNCAPCLONEFGC_PROSTATE): 0.9173
- AUC (LOUNH91_LUNG): 1.097
- AUC (LOVO_LARGE_INTESTINE): 1.325
- AUC (LOXIMVI_SKIN): 1.09
- AUC (LS180_LARGE_INTESTINE): 1.075
- AUC (LS411N_LARGE_INTESTINE): 1.3262
- AUC (LS513_LARGE_INTESTINE): 1.3335
- AUC (LS1034_LARGE_INTESTINE): 1.506
- AUC (LU99_LUNG): 0.9959
- AUC (LUDLU1_LUNG): 0.9789
- AUC (LXF289_LUNG): 1.119
- AUC (MALME3M_SKIN): 0.9879
- AUC (MCAS_OVARY): 1.03
- AUC (MCF7_BREAST): 1.188
- AUC (MDAMB175VII_BREAST): 1.1488
- AUC (MDAMB231_BREAST): 1.063
- AUC (MDAMB435S_SKIN): 1.117
- AUC (MDAMB436_BREAST): 1.147
- AUC (MDAMB468_BREAST): 1.0692
- AUC (MELHO_SKIN): 1.016
- AUC (MELJUSO_SKIN): 1.072
- AUC (MESSA_SOFT_TISSUE): 0.9027
- AUC (MEWO_SKIN): 1.126
- AUC (MFE280_ENDOMETRIUM): 1.168
- AUC (MFE296_ENDOMETRIUM): 1.031
